# Reference: patent US9017962B2, “Intracellular reporters” (The Johns Hopkins University, priority 2007, dated 2015)
# “Also recorded” adds a separate entry of the source.
# Columns and labels:
# Type in all cases: cell-based
# [1] = system: Akt; test: Plasma membrane targeted AktAR imaging in NIH3T3 cells; details: 5 mM pre-incubation for 30 min
# Source text: (§1) All of the targeting tags were subcloned to AktAR from targeted A Kinase Activity Reporter (AKAR) (Allen & Zhang, Biochem Biophys Res Commun. 2006, 22; 348(2):716-21). Two plasma membrane targeted AktAR, PM(Lyn)-AktAR and AktAR-PM(CAAX), were generated by addition of the N-terminal portion of Lyn kinase gene at the 5′ end and CAAX tag at the 3′ end of AktAR, respectively. Nuclear localization was achieved by a C-terminal nuclear localization signal (NLS) tag (PKKKRKVEDA, SEQ ID NO:31). The targeting motif from DAKAP1a was used to target AktAR to the outer membrane of mitochondria.
# (§2) NIH 3T3 cells were used in all experiments. The cells were plated on sterilized glass coverslips in 35-mm dishes and were grown to 40% confluency in Dulbecco's modified Eagle's medium (10% FBS) at 37° C. with 5% CO2. Cells were transfected with Lipofectamine (Invitrogen) then serum-starved for 24 h before imaging.
# NIH 3T3 cells were washed once with Hanks' balanced salt solution (HBSS) buffer and imaged in the dark at room temperature. Images were acquired on a Zeiss Axiovert 200M microscope with a cooled charge-coupled device camera, as described in Ananthanarayanan, 2005. […]
# Imaging data were analyzed with Metafluor 6.2 software (Universal Imaging, Downingtown, Pa.). Fluorescence images were background-corrected by deducting the background (regions with no cells) from the emission intensities of CFP or YFP. […]
# [2] = system: Akt; test: AktAR emission ratio imaging in NIH3T3 cells
# Procedure: as §2
# (§3) NIH 3T3 cells were washed once with Hanks' balanced salt solution (HBSS) buffer and imaged in the dark at room temperature. Images were acquired on a Zeiss Axiovert 200M microscope with a cooled charge-coupled device camera, as described in Ananthanarayanan, 2005. Dual emission ratio imaging used a 420DF20 excitation filter, a 450DRLP dichroic mirror, and two emission filters. For CFP and YFP, 475DF40 and 535DF25 were used respectively. Exposure time was 50-500 ms. Images were taken every 20-30 s.
# (§4) Imaging data were analyzed with Metafluor 6.2 software (Universal Imaging, Downingtown, Pa.). Fluorescence images were background-corrected by deducting the background (regions with no cells) from the emission intensities of CFP or YFP. Traces before addition of drugs were normalized to 1.
# [3] = system: Akt; test: Mito-AktAR imaging, Akt activity at the mitochondrial outer membrane, NIH3T3 cells
# Source text: as §1, §2, §3, §4
# It has been known that Akt has several mitochondrial substrates. […] In summary, no basal, PDGF-stimulated, or phosphatase-suppressed endogenous Akt was detected at this location. It is possible that the extremely low activity of Akt at the mitochondrial outer membrane cannot be detected by Mito-AktAR.
# [4] = system: calcineurin; test: Calcineurin activity reporter emission ratio imaging in HeLa cells; details: 1 μM, 10 minute preincubation
# Procedure: FIG. 22. Characterization of calcineurin activity reporter 1 (CaNAR1). Graph of representative response of CaNAR1-expressing HeLa cells following ionomycin treatment. Ionomycin (1 μM) and additional CaCl2 (5 mM) were added to the imaging solution at the indicated times (arrows). The standard deviation for each time point is shown (n=2).
# (§5) FIG. 23A-B. CaNAR1 is dephosphorylated in a calcineurin-dependent manner. FIG. 23A, graph of average response of CaNAR1 in the presence (black squares) or absence (gray diamonds) of cyclosporin A (CsA, 1-μM, 10 minute preincubation). Ionomycin and CaCl2 treatments are as described for FIG. 22. The standard error at each time point is shown (n=4 and 6 in the presence or absence of CsA, respectively). FIG. 23B, the electrophoretic mobility of CaNAR1 isolated from HeLa cell lysates was determined at various times after ionomycin addition using standard western blotting techniques using a rabbit anti-GFP antibody (diluted 1:4000 in blocking buffer) was used to probe for CaNAR1.
# To generate a FRET-based reporter capable of monitoring calcineurin activity in live cells, we initially chose to flank NFAT1(1-415) with ECFP and cpV(L194) at the N- and C-termini, respectively. […] The emission ratio of yellow over cyan was then measured over time in HeLa cells expressing each construct, and their signals compared. […]
# [5] = system: calcineurin; test: Electrophoretic mobility of CaNAR1 from HeLa cell lysates (western blot); details: preincubation prior to ionomycin treatment
# Procedure: as §5
# Next, to correlate the FRET change with dephosphorylation of CaNAR1, we took advantage of the fact that the electrophoretic mobility of NFAT1 is strongly influenced by its phosphorylation state. […] Though its calculated molecular weight is 85 kDa, CaNAR1 migrated almost exclusively as an approximately 125 kDa species in uninduced cell lysates, consistent with hyperphosphorylation of its substrate region. […] Thus, the observed FRET change is correlated with dephosphorylation of the reporter by calcineurin, providing a real-time readout for calcineurin activity.
# [6] = system: p38 MAPK; test: JNK reporter specificity: inhibition of p38 MAPK in HeLa cells; details: 25 μM, 45 min pre-treatment and continual presence
# Procedure: FIG. 16A-B. Characterization of a MAPK reporter. FIG. 16A, Co-transfection of reporter with mCherry-JIPδ. To inhibit JNK activity, HeLa cells were co-transfected with the reporter and mCherry-JIPδ and imaged 24 h later in HBSS containing 10% FBS on stage warmer heated to 37° C. […] FIG. 16B, Response of reporter to inhibition of p38 MAPK.
# To test the specificity of the reporter, HeLa cells were co-transfected with the reporter and a fusion construct of mCherry with the docking (δ) domain from JIP1.
compound,measurement,setting,value
methylated β-cyclodextrin [MβCD],effect on PM(Lyn)-AktAR response to PDGF (lipid rafts),[1],delayed response and reduced dynamic range; also recorded: diminishes Akt activity at the plasma membrane lipid rafts
COC[C@@H]([C@H](O)[C@H](O)C(=O)NCC[C@H](C)c1nc(/C=C/C[C@@H]2O[C@]3(C[C@@H](O)[C@@H]2C)O[C@H]([C@H](C[C@H](O)[C@H](C)[C@H](O)[C@H](C)/C=C(C)/C(C)=C/C=C/C(C)=C\C#N)OC)[C@H](OP(=O)(O)O)C3(C)C)co1)N(C)C [Calyculin A],effect on AktAR response,"[2]; 5 nM after PDGF 50 ng/ml, serum-starved NIH3T3 cells",substantially increased the response of AktAR
same,effect on Mito-AktAR response,"[3]; endogenous Akt, Calyculin A 5 nM or LY294002 20 μM",did not recover any Akt activity
same,effect on Mito-AktAR response,"[3]; overexpressed Mito-mCherry-Akt1, Calyculin A 5 nM or LY294002",failed to activate mitochondrial outer membrane-bound Akt
same,effect on Mito-AktAR response,"[3]; overexpressed mCherry-Akt1, after PDGF, Calyculin A 5 nM or LY294002 20 μM",further increased the response
Cyclosporin A [CsA],effect on FRET change of CaNAR1 induced by ionomycin,[4],completely abolished the FRET change
same,effect on FRET change of CaNAR1 induced by ionomycin,[4]; listed as cyclosporine A,abolished
same,effect on electrophoretic mobility of CaNAR1 after ionomycin,[5],no change in the electrophoretic mobility
C[S+]([O-])c1ccc(-c2nc(-c3ccncc3)c(-c3ccc(F)cc3)[nH]2)cc1 (stereo not shown) [SB203580],effect on response of the reporter to anisomycin,[6],does not affect the response of the reporter to anisomycin
CCCCCCCCCCCCCCCCCCOC[C@H](COP(=O)(O)O[C@H]1[C@H](O)[C@@H](O)[C@H](O)C[C@H]1OC)OC [SH-5],AktAR response to PDGF after pre-incubation with inhibitor,"[2]; 6 μM pre-incubation in HBSS, PDGF 50 ng/ml",did not show substantial response
